Values joined by “and” are separate entries in the source; they are usually repeats but may differ in a detail not shown here. Identical values can stand only once. Inconclusive results and toxic doses are left out.

This experiment concerns CD2F1 mice, P388/ADR leukemia ip, median survival T/C. In words: NCI In Vivo Anticancer Drug Screen. Data for tumor model P388 Leukemia resistant to Adriamycin; NSC 123127, Developed at Scr 08 (intraperitoneal) in CD2F1 (CDF1) mice. To be noted: endpoint: median survival time, higher = longer survival. Here is the method:
The antitumor activity of compounds was measured in mice bearing transplantable tumors. Survival or tumor size were measured and the results are expressed as the measurement made in the treated group (T) divided by the measurement made in the vehicle treated control group (C). The tumor model used in this assay is P388 Leukemia resistant to Adriamycin; NSC 123127, Developed at Scr 08 (intraperitoneal) in CD2F1 (CDF1) mice

[1] abbreviates: dose: 0.78 mg/kg/injection, schedule: Q01DX005 (ip), vehicle: suspension in saline.
Where [2] appears, read: dose: 12.5 mg/kg/injection, schedule: Q01DX005 (ip), vehicle: saline with Tween-80.
Where [3] appears, read: dose: 25.0 mg/kg/injection, schedule: Q01DX005 (ip), vehicle: saline with Tween-80.
[4] abbreviates: dose: 50.0 mg/kg/injection, schedule: Q01DX005 (ip), vehicle: saline with Tween-80.

For the compound `CCOc1ccc(C(C)c2cc3c(cc2OC)OCO3)cc1` (stereo unspecified), the T/C reads like this: (dose: 25.0 mg/kg/injection, schedule: Q01DX005 (ip), vehicle: distilled water + Tween-80) 110 % of control; (dose: 50.0 mg/kg/injection, schedule: Q01DX005 (ip), vehicle: distilled water + Tween-80) 100 % of control; (dose: 72.0 mg/kg/injection, schedule: Q01DX005 (ip), vehicle: distilled water + Tween-80) 117 % of control; (dose: 100.0 mg/kg/injection, schedule: Q01DX005 (ip), vehicle: distilled water + Tween-80) 113 % of control; (dose: 120.0 mg/kg/injection, schedule: Q01DX005 (ip), vehicle: distilled water + Tween-80) 118 % of control; (dose: 200.0 mg/kg/injection, schedule: Q01DX005 (ip), vehicle: distilled water + Tween-80) 167 % of control and 184 % of control. Also, the T/C (dose: 333.33 mg/kg/injection, schedule: Q01DX005 (ip), vehicle: distilled water + Tween-80) is 165 % of control and 176 % of control.

For the compound `[CH3][Sn]([CH3])([Cl])[c]1cc[c]([Sn]([CH3])([CH3])[Cl])cc1`, the T/C reads like this: (dose: 0.19 mg/kg/injection, schedule: Q01DX005 (ip), vehicle: suspension in saline) 96 % of control; (dose: 0.39 mg/kg/injection, schedule: Q01DX005 (ip), vehicle: suspension in saline) 105 % of control; under setting [1], 114 % of control; (dose: 1.56 mg/kg/injection, schedule: Q01DX005 (ip), vehicle: suspension in saline) 114 % of control.

For the compound `O=C1CN(CCN2CC(=O)N(CN3CCOCC3)C(=O)C2)CC(=O)N1CN1CCOCC1`, the T/C was 107 % of control (dose: 12.5 mg/kg/injection, schedule: Q01DX005 (ip), vehicle: water); 105 % of control (dose: 25.0 mg/kg/injection, schedule: Q01DX005 (ip), vehicle: water); 96 % of control (dose: 50.0 mg/kg/injection, schedule: Q01DX005 (ip), vehicle: water); 100 % of control (dose: 100.0 mg/kg/injection, schedule: Q01DX005 (ip), vehicle: water).

Take `COC(=O)C[C@](O)(CCCC(C)(C)O)C(=O)O[C@@H]1C(OC)=C[C@]23CCCN2CCc2cc4c(cc2[C@H]13)OCO4`: the T/C is 104 % of control and 109 % of control (dose: 0.87 mg/kg/injection, schedule: Q01DX009 (ip), vehicle: acid diluted with saline); 99 % of control (dose: 1.3 mg/kg/injection, schedule: Q01DX009 (ip), vehicle: acid diluted with saline).

On to `COc1ccc2[nH]c3ccc4cc[n+](CCN5CCC(C6CCN(CC[n+]7ccc8ccc9[nH]c%10ccc(OC)cc%10c9c8c7)CC6)CC5)cc4c3c2c1`, for which the T/C was 119 % of control (dose: 2.0 mg/kg/injection, schedule: Q01DX005 (ip), vehicle: water); 123 % of control (dose: 4.0 mg/kg/injection, schedule: Q01DX005 (ip), vehicle: water); 152 % of control (dose: 8.0 mg/kg/injection, schedule: Q01DX005 (ip), vehicle: water); 158 % of control (dose: 16.0 mg/kg/injection, schedule: Q01DX005 (ip), vehicle: water); 163 % of control (dose: 32.0 mg/kg/injection, schedule: Q01DX005 (ip), vehicle: water).

As to `COc1cccc2c1C(=O)c1c(O)c3c(c(O)c1C2=O)CC(O)(C(=O)CO)CC3OC1CC(N)C(I)C(C)O1` (stereo unspecified), the T/C is 98 % of control (dose: 2.2 mg/kg/injection, schedule: Q01DX001 (ip), vehicle: saline); 99 % of control (dose: 3.3 mg/kg/injection, schedule: Q01DX001 (ip), vehicle: saline); 108 % of control and 117 % of control (dose: 5.0 mg/kg/injection, schedule: Q01DX001 (ip), vehicle: saline); 118 % of control (dose: 7.5 mg/kg/injection, schedule: Q01DX001 (ip), vehicle: saline); 150 % of control (dose: 25.2 mg/kg/injection, schedule: Q01DX001 (ip), vehicle: saline).

Take `CC[C@]1(O)C[C@H]2CN(CCc3c([nH]c4ccccc34)[C@@](C(=O)OC)(c3cc4c(cc3OC)N(C)[C@H]3[C@@](O)(C(=O)OC)[C@H](OC(C)=O)[C@]5(CC)C=CCN6CC[C@]43[C@@H]65)C2)C1`: the T/C (dose: 0.5 mg/kg/injection, schedule: Q04DX003 (ip), vehicle: saline) is 101 % of control; the T/C (dose: 1.0 mg/kg/injection, schedule: Q04DX003 (ip), vehicle: saline) was 100 % of control; the T/C (dose: 2.0 mg/kg/injection, schedule: Q04DX003 (ip), vehicle: saline) is 100 % of control; the T/C (dose: 4.0 mg/kg/injection, schedule: Q04DX003 (ip), vehicle: saline) is 83 % of control; the T/C (dose: 8.0 mg/kg/injection, schedule: Q04DX003 (ip), vehicle: saline) was 57 % of control.

On to `N=C(N)c1ccc(N=NNc2ccc(C(=N)N)cc2)cc1`, for which the T/C is, setting by setting: under setting [2], 105 % of control; under setting [3], 115 % of control; under setting [4], 117 % of control.

For the compound `COc1cccc2c1C(=O)c1c(O)c3c(c(O)c1C2=O)C[C@@](O)(C(=O)CO)C[C@@H]3OC1CC(N2CCOCC2)C(O)C(C)O1` (stereo partly specified), the T/C (dose: 22.0 micrograms/kg/injection, schedule: Q04DX003 (iv), vehicle: saline + alcohol) was 107 % of control; the T/C (dose: 33.0 micrograms/kg/injection, schedule: Q04DX003 (iv), vehicle: saline + alcohol) was 105 % of control; the T/C (dose: 50.0 micrograms/kg/injection, schedule: Q04DX003 (iv), vehicle: saline + alcohol) is 102 % of control; the T/C (dose: 75.0 micrograms/kg/injection, schedule: Q04DX003 (iv), vehicle: saline + alcohol) was 101 % of control.

With `[N-]=[N+]=CC(=O)CCC(NC(=O)OCc1ccccc1)C(=O)OCc1ccccc1` (stereo unspecified), the T/C is 115 % of control (dose: 12.5 mg/kg/injection, schedule: Q01DX005 (ip), vehicle: Klucel (hydroxypropylcellulose) (HPC)); 117 % of control (dose: 25.0 mg/kg/injection, schedule: Q01DX005 (ip), vehicle: Klucel (hydroxypropylcellulose) (HPC)); 100 % of control (dose: 36.0 mg/kg/injection, schedule: Q01DX005 (ip), vehicle: Klucel (hydroxypropylcellulose) (HPC)); 112 % of control (dose: 60.0 mg/kg/injection, schedule: Q01DX005 (ip), vehicle: Klucel (hydroxypropylcellulose) (HPC)); 166 % of control (dose: 100.0 mg/kg/injection, schedule: Q01DX005 (ip), vehicle: Klucel (hydroxypropylcellulose) (HPC)); 165 % of control (dose: 200.0 mg/kg/injection, schedule: Q01DX005 (ip), vehicle: Klucel (hydroxypropylcellulose) (HPC)). Further, the T/C (dose: 278.0 mg/kg/injection, schedule: Q01DX005 (ip), vehicle: Klucel (hydroxypropylcellulose) (HPC)) was 155 % of control.

`COc1cccc2c1C(CO)N1C(C#N)C3CC(C(=O)O)C(C1C2)N3C` (stereo unspecified): the T/C is, setting by setting: under setting [1], 186 % of control; (dose: 1.57 mg/kg/injection, schedule: Q01DX005 (ip), vehicle: suspension in saline) 280 % of control; (dose: 3.12 mg/kg/injection, schedule: Q01DX005 (ip), vehicle: saline) 200 % of control; (dose: 3.13 mg/kg/injection, schedule: Q01DX005 (ip), vehicle: suspension in saline) 224 % of control; (dose: 6.25 mg/kg/injection, schedule: Q01DX005 (ip), vehicle: saline) 248 % of control; (dose: 6.25 mg/kg/injection, schedule: Q01DX005 (ip), vehicle: suspension in saline) 271 % of control. The T/C by setting is: (dose: 12.5 mg/kg/injection, schedule: Q01DX005 (ip), vehicle: saline) 266 % of control; (dose: 12.5 mg/kg/injection, schedule: Q01DX005 (ip), vehicle: suspension in saline) 214 % of control; (dose: 25.0 mg/kg/injection, schedule: Q01DX005 (ip), vehicle: saline) 272 % of control; (dose: 25.0 mg/kg/injection, schedule: Q01DX005 (ip), vehicle: suspension in saline) 252 % of control.

As for `COc1cc2c(c3c1c(=O)c1ccccc1n3C)C=CC(C)(C)O2`, the T/C under setting [2] was 115 % of control, the T/C under setting [3] is 87 % of control and the T/C under setting [4] is 90 % of control.

For `O=C(Oc1ccccc1)c1cc(O)c(O)c(O)c1`, the T/C is 102 % of control under setting [3]; 98 % of control under setting [4]; 99 % of control (dose: 100.0 mg/kg/injection, schedule: Q01DX005 (ip), vehicle: saline with Tween-80); 112 % of control (dose: 200.0 mg/kg/injection, schedule: Q01DX005 (ip), vehicle: saline with Tween-80).

With `COc1cc([C@@H]2c3cc4c(cc3[C@@H](OC3OC5COC(C)OC5C(O)C3O)[C@H]3COC(=O)[C@H]23)OCO4)cc(OC)c1O` (stereo partly specified), the T/C is, setting by setting: (dose: 18.0 mg/kg/injection, schedule: Q04DX003 (ip), vehicle: Klucel (hydroxypropylcellulose) (HPC)) 113 % of control; (dose: 27.0 mg/kg/injection, schedule: Q04DX003 (ip), vehicle: Klucel (hydroxypropylcellulose) (HPC)) 119 % of control; (dose: 40.0 mg/kg/injection, schedule: Q04DX003 (ip), vehicle: Klucel (hydroxypropylcellulose) (HPC)) 110 % of control.

The values are drawn from PubChem BioAssay AID322 (DTP/NCI, 2004).
